Measured values: ChEMBL document CHEMBL5584350, “Structural and Biochemical Insights into the Mechanism of Action of the Clinical USP1 Inhibitor, KSQ-4279” (J Med Chem, 2024)
Active and inactive are the calls of the source. The calls are words filed in the database; no cut-off is given here.

Key:
[1] = organism: Homo sapiens; test: Thermal stabilization of human His6-smt3 fused USP7 catalytic domain (208 to 560 residues) expressed in Escherichia coli assessed as increase in melting temperature at 50 uM by SYPRO orange dye based thermal shift assay
[2] = molecular target: Ubiquitin carboxyl-terminal hydrolase 11 (Homo sapiens) (UniProt P51784); test: Inhibition of USP11 (unknown origin)
[3] = Selectivity index, ratio of inhibition of USP12 (unknown origin) to IC50 for human USP1
[4] = molecular target: T1, Ubiquitin carboxyl-terminal hydrolase 1 (Homo sapiens) (UniProt O94782); test: Inhibition of human USP1 using FANC1-FANCD2Ub-ds DNA as substrate assessed as reduction in FANCD2 deubiquitination at 25 uM measured after 0 to 20 mins by instant-blue coomassie staining based SDS-PAGE analysis; settings: time 0-20 min
T1 sequence (whole entry): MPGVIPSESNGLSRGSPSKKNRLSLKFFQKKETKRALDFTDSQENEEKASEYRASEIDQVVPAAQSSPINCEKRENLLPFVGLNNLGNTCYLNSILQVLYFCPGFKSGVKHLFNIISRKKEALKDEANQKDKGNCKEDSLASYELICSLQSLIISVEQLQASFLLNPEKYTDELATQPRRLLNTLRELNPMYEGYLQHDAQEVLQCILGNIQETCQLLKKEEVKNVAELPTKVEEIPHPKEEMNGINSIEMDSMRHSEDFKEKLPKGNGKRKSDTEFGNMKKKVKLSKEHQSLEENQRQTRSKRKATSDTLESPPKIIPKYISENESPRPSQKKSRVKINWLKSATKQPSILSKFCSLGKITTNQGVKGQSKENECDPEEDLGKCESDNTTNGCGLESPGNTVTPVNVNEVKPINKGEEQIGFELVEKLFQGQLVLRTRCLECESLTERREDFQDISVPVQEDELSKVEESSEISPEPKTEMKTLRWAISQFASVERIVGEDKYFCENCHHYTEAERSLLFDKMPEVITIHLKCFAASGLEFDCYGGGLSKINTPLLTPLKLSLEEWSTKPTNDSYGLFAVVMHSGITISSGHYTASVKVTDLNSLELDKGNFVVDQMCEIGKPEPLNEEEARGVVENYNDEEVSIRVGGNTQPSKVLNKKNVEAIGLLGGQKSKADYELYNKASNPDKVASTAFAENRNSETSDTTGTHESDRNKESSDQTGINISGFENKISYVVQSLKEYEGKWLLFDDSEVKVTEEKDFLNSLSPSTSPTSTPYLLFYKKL

[5] = molecular target: T1, Ubiquitin carboxyl-terminal hydrolase 1 (Homo sapiens); settings: dose 50.0 µM
Description: Thermal stabilization of human USP1 assessed as increase in melting temperature at 50 uM by SYPRO Orange dye based thermal shift assay

[6] = molecular target: Ubiquitin carboxyl-terminal hydrolase 46 (Homo sapiens) (UniProt P62068); test: Inhibition of USP46 (unknown origin) at 10 uM relative to control
[7] = molecular target: Ubiquitin carboxyl-terminal hydrolase 12 (Homo sapiens) (UniProt O75317); test: Inhibition of USP12 (unknown origin) at 10 uM relative to control
[8] = system: Ubiquitin carboxyl-terminal hydrolase 1 (Homo sapiens), O94782 [UNDEFINED MUTATION]; test: (§1) Binding affinity to human His6 tagged/TEV fused USP1 229 to 408/608 to 737 residues disordered inserts deletion mutant expressed in Sf21 insect cells assessed as displacement of N85 by measuring alpha-chymotrypsin mediated protein truncation at F80 or R74 at 25 uM measured at 10 to 20 mins by instant-blue coomassie staining based SDS-PAGE analysis; settings: time 10-20 min
[9] = system: Ubiquitin carboxyl-terminal hydrolase 1 (Homo sapiens), O94782 [UNDEFINED MUTATION]; test: as §1, with “trypsin” for “alpha-chymotrypsin”; settings: time 10-20 min
[10] = molecular target: Ubiquitin carboxyl-terminal hydrolase 46 (Homo sapiens) (UniProt P62068); test: Inhibition of human USP46 at 100 uM by ubiquitin-rhodamine assay relative to control
[11] = molecular target: Ubiquitin carboxyl-terminal hydrolase 12 (Homo sapiens) (UniProt O75317); test: Inhibition of human USP12 at 100 uM by ubiquitin-rhodamine assay relative to control

Sequence of Ubiquitin carboxyl-terminal hydrolase 46 (Homo sapiens) (P62068 whole entry): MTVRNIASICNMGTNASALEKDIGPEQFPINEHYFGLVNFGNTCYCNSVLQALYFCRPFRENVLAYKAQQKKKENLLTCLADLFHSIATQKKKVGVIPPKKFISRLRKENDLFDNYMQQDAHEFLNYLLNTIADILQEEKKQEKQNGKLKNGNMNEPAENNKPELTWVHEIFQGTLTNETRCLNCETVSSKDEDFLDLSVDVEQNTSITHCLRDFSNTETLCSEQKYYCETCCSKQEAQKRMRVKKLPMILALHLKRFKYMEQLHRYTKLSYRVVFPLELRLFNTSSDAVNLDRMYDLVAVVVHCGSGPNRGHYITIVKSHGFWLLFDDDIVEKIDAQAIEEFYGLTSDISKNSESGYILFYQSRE
Sequence of Ubiquitin carboxyl-terminal hydrolase 12 (Homo sapiens) (O75317 whole entry, the tested form may be a part): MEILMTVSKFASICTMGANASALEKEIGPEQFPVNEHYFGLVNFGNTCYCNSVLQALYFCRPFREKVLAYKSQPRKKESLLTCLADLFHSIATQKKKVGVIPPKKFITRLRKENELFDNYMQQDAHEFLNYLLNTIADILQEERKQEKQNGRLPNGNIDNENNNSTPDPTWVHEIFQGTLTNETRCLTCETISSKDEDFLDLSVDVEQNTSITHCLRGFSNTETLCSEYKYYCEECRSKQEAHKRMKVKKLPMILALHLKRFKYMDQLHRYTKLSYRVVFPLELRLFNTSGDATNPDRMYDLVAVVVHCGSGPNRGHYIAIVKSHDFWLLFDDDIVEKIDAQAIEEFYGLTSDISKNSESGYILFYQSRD
Sequence of Ubiquitin carboxyl-terminal hydrolase 11 (Homo sapiens) (P51784 whole entry): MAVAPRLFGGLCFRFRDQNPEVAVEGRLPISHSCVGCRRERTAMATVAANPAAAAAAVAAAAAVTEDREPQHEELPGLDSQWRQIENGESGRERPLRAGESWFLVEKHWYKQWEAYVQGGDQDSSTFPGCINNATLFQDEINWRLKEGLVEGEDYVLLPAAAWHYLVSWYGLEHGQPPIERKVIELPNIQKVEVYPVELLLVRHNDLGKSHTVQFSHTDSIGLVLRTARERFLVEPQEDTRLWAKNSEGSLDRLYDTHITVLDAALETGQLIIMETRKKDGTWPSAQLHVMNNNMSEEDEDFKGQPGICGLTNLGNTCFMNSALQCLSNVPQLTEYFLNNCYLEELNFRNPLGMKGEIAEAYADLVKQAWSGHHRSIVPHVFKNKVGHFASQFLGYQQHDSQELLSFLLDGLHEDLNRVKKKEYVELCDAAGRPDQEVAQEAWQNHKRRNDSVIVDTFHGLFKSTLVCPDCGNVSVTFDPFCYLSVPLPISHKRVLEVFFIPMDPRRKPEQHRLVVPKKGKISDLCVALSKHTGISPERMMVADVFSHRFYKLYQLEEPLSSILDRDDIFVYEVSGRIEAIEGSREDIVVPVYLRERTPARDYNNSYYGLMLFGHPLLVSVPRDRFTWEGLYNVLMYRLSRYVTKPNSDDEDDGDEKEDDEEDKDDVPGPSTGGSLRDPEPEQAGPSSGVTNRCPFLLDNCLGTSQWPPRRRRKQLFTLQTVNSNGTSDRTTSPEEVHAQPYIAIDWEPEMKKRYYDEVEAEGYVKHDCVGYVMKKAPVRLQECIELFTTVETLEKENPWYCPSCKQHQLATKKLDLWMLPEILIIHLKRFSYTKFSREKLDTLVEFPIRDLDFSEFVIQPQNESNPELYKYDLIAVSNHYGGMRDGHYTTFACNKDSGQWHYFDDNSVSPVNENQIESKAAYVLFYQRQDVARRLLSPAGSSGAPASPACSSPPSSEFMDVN

**Q.** Which results are given for `Cc1cnc(-c2ccccc2C(C)C)nc1NCc1ccc(-n2ccnn2)cc1`?
**A.** Activity [1]: inactive; inhibition [2]: inactive; Selectivity Index [3]: 100; inhibition [4]: inactive; ΔTm [5]: 11 °C

**Q.** For `CC(C)c1ccccc1-c1ncc2[nH]c(=O)n(Cc3ccc(-c4nc(C(F)(F)F)cn4C)cc3)c2n1`, which inhibition [6] is on record?
**A.** The inhibition was 50%.

**Q.** What about the inhibition [7] of the same compound?
**A.** Its inhibition is 50%.

**Q.** Which Activity [8] does the source give for `O=C1c2ccccc2C(=O)c2oc(-c3ccccc3)nc21` here?
**A.** Its Activity is “inactive”.

**Q.** And the Activity [9]?
**A.** The Activity was “inactive”.

**Q.** What does the source list for `COc1ncnc(C2CC2)c1-c1ncc2cnn(Cc3ccc(-c4nc(C(F)(F)F)cn4C(C)C)cc3)c2n1`?
**A.** Activity [1]: inactive; inhibition [10]: < 50%; inhibition [2]: inactive; inhibition [11]: < 50%
